Experimental data published in patent publication US10676446B2, “Bicyclic quinazolinone derivatives” (Hoffmann-La Roche Inc., priority 2015, dated 2020).

Biological target: human ATX (autotaxin, ENPP2), His-tagged (Homo sapiens (Human), UniProt Q13822)
Test: Human ATX enzyme inhibition assay (fluorescence quenching, MR121 substrate)
Format: biochemical
Conditions: 30 nM ATX, 1 μM MR121 substrate, 30° C., pH 8.0
How it was run: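 His-tagged human ATX (30 nM final) preincubated 15 min at 30 °C with serially diluted compound in Tris-HCl pH 8.0 buffer with Ca2+, Mg2+ and 0.01% Triton X-100. MR121-labelled fluorescence-quenched substrate then added (1 μM final) for a further 15 min at 30 °C; fluorescence read-out.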

For `CN(Cc1ccc(Cl)c(Cl)c1)C(=O)Cn1cnc2ccc(N3CCN(CC4COC4)CC3)cc2c1=O` [Example 106], which IC50 is on record?
The IC50 was 132 nM.

How did the IC50 turn out when `CC(=O)N1CCN(c2ccc3ncn(CC(=O)N(C)Cc4ccc(Cl)c(C#N)c4)c(=O)c3c2)CC1` [Example 57, 2-[6-(4-Acetylpiperazin-1-yl)-4-oxoquinazolin-3-yl]-N-[(4-chloro-3-cyanophenyl)methyl]-N-methylacetamide] was run?
The IC50 was 8 nM.

How did the IC50 turn out when `O=C(Cn1cnc2ccc(N3CCN(C(=O)c4ccno4)CC3)cc2c1=O)NCc1ccc(Cl)c(Cl)c1` [Example 67] was run?
The IC50 was 15 nM.

How did the IC50 turn out when `CC(=O)N1CCN(c2ccc3ncn(C(C)C(=O)N(C)Cc4ccc(Cl)c(Cl)c4)c(=O)c3c2)CC1` (centres unmarked) [Example 149, 2-[6-(4-Acetylpiperazin-1-yl)-4-oxoquinazolin-3-yl]-N-[(3,4-dichlorophenyl)methyl]-N-methylpropanamide] was run?
The IC50 was 39 nM.

How did the IC50 turn out when `CC(=O)N1CCN(c2ccc3ncn(CC(=O)NC(CC(=O)NCc4ccccc4)c4ccc(C(F)(F)F)cc4)c(=O)c3c2)CC1` (centres unmarked) [Example 8] was run?
Its IC50 is 279 nM.

How did the IC50 turn out when `COCC(=O)N1CCN(c2ccc3ncn(CC(=O)NCc4ccc(Cl)c(Cl)c4)c(=O)c3c2)CC1` [Example 61] was run?
Its IC50 is 16 nM.

Which IC50 does the source give for `CC(=O)N1CCCN(c2ccc3ncn(CC(=O)NCc4ccc(C(F)(F)F)cc4)c(=O)c3c2)CC1` [Example 119] here?
Its IC50 is 649 nM.

`CNC(=O)C[C@@H](NC(=O)Cn1cnc2ccc(N3CCN(C(C)=O)CC3)cc2c1=O)c1ccc([N+](=O)[O-])cc1` [Example 9, (3R)-3-[[2-[6-(4-Acetylpiperazin-1-yl)-4-oxoquinazolin-3-yl]acetyl]amino]-N-methyl-3-(4-nitrophenyl)propanamide] was tested. Which IC50 did it give?
Its IC50 is 54 nM.

Which IC50 does the source give for `CC(=O)N1CCCN(c2ccc3ncn(CC(=O)N(C)Cc4ccc(C#N)c(Cl)c4)c(=O)c3c2)CC1` [Example 120] here?
The IC50 was 9 nM.

With `O=C(Cn1cnc2ccc(N3CCN(CC4CCOCC4)CC3)cc2c1=O)NCc1ccc(Cl)c(Cl)c1` [Example 98] as the compound, how does the IC50 read?
The IC50 was 44 nM.

For `COCCC(=O)N1CCC(c2cc(F)c3ncn(CC(=O)N(C)Cc4ccc(C#N)c(Cl)c4)c(=O)c3c2)CC1` [Example 188, N-[(3-Chloro-4-cyanophenyl)methyl]-2-[8-fluoro-6-[1-(3-methoxypropanoyl)piperidin-4-yl]-4-oxoquinazolin-3-yl]-N-methylacetamide], which IC50 is on record?
The IC50 was 1 nM.

With `CC(=O)N1CC2CC1CC2c1ccc2ncn(CC(=O)NCc3ccc(Cl)c(Cl)c3)c(=O)c2c1` (centres unmarked) [Example 147, 2-[6-[2-Acetyl-2-azabicyclo[2.2.1]heptan-5-yl]-4-oxoquinazolin-3-yl]-N-[(3,4-dichlorophenyl)methyl]acetamide] as the compound, how does the IC50 read?
The IC50 was 140 nM.

For `CC(=O)N1CCN(c2ccc3ncn(CC(=O)NCc4ccc(C#N)cc4)c(=O)c3c2)CC1` [Example 19], which IC50 is on record?
Its IC50 is 130 nM.

With `CC(=O)N1CCN(c2ccc3ncn(CC(=O)NCc4ccc(Cl)c(F)c4)c(=O)c3c2)CC1` [Example 24] as the compound, how does the IC50 read?
Its IC50 is 33 nM.

How did the IC50 turn out when `COCC(=O)N1CCC(c2ccc3ncn(CC(=O)N(C)Cc4ccc(C#N)c(Cl)c4)c(=O)c3c2)CC1` [Example 132] was run?
The IC50 was 12 nM.

With `CC(=O)N1CCC(c2cc(F)c3ncn(CC(=O)N(C)Cc4ccc(C#N)c(Cl)c4)c(=O)c3c2)CC1` [Example 187, 2-[6-(1-Acetylpiperidin-4-yl)-8-fluoro-4-oxoquinazolin-3-yl]-N-[(3-chloro-4-cyanophenyl)methyl]-N-methylacetamide] as the compound, how does the IC50 read?
The IC50 was 1 nM.

For `Cc1nc(C)c(CN2CCN(c3ccc4ncn(CC(=O)NCc5ccc(Cl)c(Cl)c5)c(=O)c4c3)CC2)o1` [Example 103], which IC50 is on record?
Its IC50 is 288 nM.

`COCCNC(=O)N1CCN(c2ccc3ncn(CC(=O)NCc4ccc(Cl)c(Cl)c4)c(=O)c3c2)CC1` [Example 85] was tested. Which IC50 did it give?
The IC50 was 61 nM.

How did the IC50 turn out when `CN(Cc1ccc(Cl)c(Cl)c1)C(=O)Cn1cnc2ccc(N3CCN(C(=O)C4CCC4)CC3)cc2c1=O` [Example 73] was run?
Its IC50 is 6 nM.

Which IC50 does the source give for `CN(Cc1ccc(Cl)c(Cl)c1)C(=O)Cn1cnc2ccc(C3CCN(C(=O)c4cnco4)CC3)cc2c1=O` [Example 183] here?
Its IC50 is 28 nM.

How did the IC50 turn out when `O=C(Cn1cnc2ccc(N3CCN(Cc4ccoc4C(=O)O)CC3)cc2c1=O)NCc1ccc(Cl)c(Cl)c1` [Example 102] was run?
Its IC50 is 195 nM.

Which IC50 does the source give for `CC(C)[C@@H](O)C(=O)N1CCC(c2ccc3ncn(CC(=O)N(C)Cc4ccc(Cl)c(Cl)c4)c(=O)c3c2)CC1` [Example 169] here?
The IC50 was 35 nM.

Which IC50 does the source give for `O=C(Cn1cnc2ccc(N3CCN(Cc4ncc[nH]4)CC3)cc2c1=O)NCc1ccc(Cl)c(Cl)c1` [Example 100] here?
Its IC50 is 204 nM.

How did the IC50 turn out when `CC(=O)N1CCN(c2ccc3ncn(CC(=O)NCc4ccnc(Cl)c4)c(=O)c3c2)CC1` [Example 36] was run?
The IC50 was 346 nM.

For `CC(=O)N1CCN(c2ccc3ncn(CC(=O)NCc4ccc(Cl)c(Cl)c4)c(=O)c3c2)CC1` [Example 22], which IC50 is on record?
The IC50 was 91 nM.

For `O=C(Cn1cnc2ccc(N3CCN(C(=O)C4CCOCC4)CC3)cc2c1=O)NCc1ccc(Cl)c(Cl)c1` [Example 66], which IC50 is on record?
Its IC50 is 190 nM.

`CNC(=O)C[C@@H](NC(=O)Cn1cnc2ccc(N3CCN(C(C)=O)CC3)cc2c1=O)c1ccc(Cl)cc1` [Example 1, (3R)-3-[[2-[6-(4-Acetylpiperazin-1-yl)-4-oxoquinazolin-3-yl]acetyl]amino]-3-(4-chlorophenyl)-N-methylpropanamide] was tested. Which IC50 did it give?
The IC50 was 269 nM.

How did the IC50 turn out when `CC(=O)N1CCN(c2ccc3ncn(CC(=O)NCc4ccc(Cl)cc4Cl)c(=O)c3c2)CC1` [Example 23] was run?
Its IC50 is 72 nM.

`CO[C@H](C)C(=O)N1CCC(c2ccc3ncn(CC(=O)N(C)Cc4ccc(Cl)c(Cl)c4)c(=O)c3c2)CC1` [Example 167] was tested. Which IC50 did it give?
The IC50 was 4 nM.

Which IC50 does the source give for `CN(Cc1ccc(Cl)c(Cl)c1)C(=O)Cn1cnc2ccc(C3CCN(C(=O)C(O)CO)CC3)cc2c1=O` (centres unmarked) [Example 177] here?
Its IC50 is 36 nM.

`CC(=O)N1CCN(c2ccc3ncn(CC(=O)NCc4ccc(C#N)cc4Cl)c(=O)c3c2)CC1` [Example 29] was tested. Which IC50 did it give?
Its IC50 is 175 nM.

With `CN(Cc1ccc(C#N)c(Cl)c1)C(=O)Cn1cnc2ccc(C3CCN(C(=O)C4CC4)CC3)cc2c1=O` [Example 136] as the compound, how does the IC50 read?
Its IC50 is 1 nM.
